The results in this text go back to US9688695B2, “Imidazothiadiazole and imidazopyrazine derivatives as protease activated receptor 4 (PAR4) inhibitors for treating platelet aggregation” (BRISTOL-MYERS SQUIBB COMPANY, priority 2012, dated 2017).

Chain of PAR4 (Q96RI0 18-385): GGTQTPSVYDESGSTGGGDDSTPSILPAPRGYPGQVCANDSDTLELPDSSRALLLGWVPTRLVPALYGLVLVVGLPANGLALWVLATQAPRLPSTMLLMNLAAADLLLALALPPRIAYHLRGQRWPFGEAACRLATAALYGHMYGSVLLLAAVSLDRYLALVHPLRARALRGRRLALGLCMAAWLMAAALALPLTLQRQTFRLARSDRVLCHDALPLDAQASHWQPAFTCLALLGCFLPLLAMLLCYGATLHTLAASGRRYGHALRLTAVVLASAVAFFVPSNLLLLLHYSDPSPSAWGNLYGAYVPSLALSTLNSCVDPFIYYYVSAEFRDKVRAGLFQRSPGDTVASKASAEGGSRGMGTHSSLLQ

The assay addresses PAR4 (Homo sapiens (Human), UniProt Q96RI0). Put plainly: FLIPR assay in PAR4-expressing HEK293 cells (PAR4 antagonist activity, calcium mobilization). The settings on record: H-Ala-Phe(4-F)-Pro-Gly-Trp-Leu-Val-Lys-Asn-Gly-NH2-induced calcium mobilization. The format is cell-based. Put shortly: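 HEK293 EBNA cells stably expressing human PAR4 (also endogenous PAR1) preincubated 30 min at room temperature with compound in HBSS/10 mM HEPES, 0.67% DMSO final. PAR4 agonist peptide then added and intracellular calcium mobilization monitored by fluorescence.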
On the technique in general: A change in cytosolic calcium serves as a functional read-out for many receptors and channels.
Broadly, the EC50 is the midpoint of the concentration-response curve. On to `COc1cc(OCc2csc(C3(NC(=O)CN(C)C)CCOCC3)n2)c2cc(-c3cn4nc(OC)sc4n3)oc2c1` [Example 174, 2-(Dimethylamino)-N-(4-(4-(((6-methoxy-2-(2-methoxyimidazo[2,1-b][1,3,4]thiadiazol-6-yl)benzofuran-4-yl)oxy)methyl)-thiazol-2-yl)tetrahydro-2H-pyran-4-yl)acetamide], for which the EC50 was 24 nM. The figure for `COc1cc(OCc2csc(C(C)(C)c3ccccc3)n2)c2cc(-c3cn4nc(OC)sc4n3)oc2c1` [Example 175, 2-Methoxy-6-(6-methoxy-4-((2-(2-phenylpropan-2-yl)thiazol-4-yl)methoxy)benzofuran-2-yl)imidazo[2,1-b][1,3,4]thiadiazole] is 1.4 nM.

Regarding `COc1cc(OCc2csc(C(C)(C)c3ccc(Cl)cc3)n2)c2cc(-c3cn4nc(OC)sc4n3)oc2c1` [Example 176, 6-(4-((2-(2-(4-Chlorophenyl)propan-2-yl)thiazol-4-yl)methoxy)-6-methoxybenzofuran-2-yl)-2-methoxyimidazo[2,1-b][1,3,4]thiadiazole], the EC50 came out at 1.3 nM. The figure for `COc1cc(OCc2csc(C3(c4cccnc4)CCC3)n2)c2cc(-c3cn4nc(OC)sc4n3)oc2c1` [Example 177, 2-Methoxy-6-(6-methoxy-4-((2-(1-(pyridin-3-yl)cyclobutyl)thiazol-4-yl)methoxy)benzofuran-2-yl)imidazo[2,1-b][1,3,4]thiadiazole] is 0.61 nM.

In the case of `C=C(c1cncnc1)c1nc(COc2cc(OC)cc3oc(-c4cn5nc(OC)sc5n4)cc23)cs1` [Example 178, 2-Methoxy-6-(6-methoxy-4-((2-(1-(pyrimidin-5-yl)vinyl)thiazol-4-yl)methoxy)benzofuran-2-yl)imidazo[2,1-b][1,3,4]thiadiazole], the EC50 came out at 0.87 nM. Turning to `CCN(CCC#N)C(=O)c1ccc(-c2nc(COc3cc(F)cc4oc(-c5cn6nc(OC)sc6n5)cc34)cs2)cc1` [Example 180, N-(2-Cyanoethyl)-N-ethyl-4-(4-(((6-fluoro-2-(2-methoxyimidazo[2,1-b][1,3,4]thiadiazol-6-yl)benzofuran-4-yl)oxy)methyl)thiazol-2-yl)benzamide], the EC50 came out at 0.47 nM. The figure for `COc1nn2cc(-c3cc4c(OCc5csc(-c6ccc(C(=O)NCC(F)(F)F)cc6)n5)cc(F)cc4o3)nc2s1` [Example 181, 4-(4-(((6-Fluoro-2-(2-methoxyimidazo[2,1-b][1,3,4]thiadiazol-6-yl)benzofuran-4-yl)oxy)methyl)thiazol-2-yl)-N-(2,2,2-trifluoroethyl)benzamide] is 0.72 nM; for `COc1nn2cc(-c3cc4c(OCc5csc(-c6ccc(C(=O)N(C)C(C)(C)C)cc6)n5)cc(F)cc4o3)nc2s1` [Example 182, N-(tert-Butyl)-4-(4-(((6-fluoro-2-(2-methoxyimidazo[2,1-b][1,3,4]thiadiazol-6-yl)benzofuran-4-yl)oxy)methyl)thiazol-2-yl)-N-methylbenzamide] it is 0.3 nM; for `COc1nn2cc(-c3cc4c(OCc5csc(-c6ccc(C(=O)N7CCCC7)cc6)n5)cc(F)cc4o3)nc2s1` [Example 183, (4-(4-(((6-Fluoro-2-(2-methoxyimidazo[2,1-b][1,3,4]thiadiazol-6-yl)benzofuran-4-yl)oxy)methyl)thiazol-2-yl)phenyl)(pyrrolidin-1-yl)methanone] it is 0.36 nM. The figure for `COc1nn2cc(-c3cc4c(OCc5csc(-c6ccc(C(=O)N(C)CC#N)cc6)n5)cc(F)cc4o3)nc2s1` [Example 184, N-(Cyanomethyl)-4-(4-(((6-fluoro-2-(2-methoxyimidazo[2,1-b][1,3,4]thiadiazol-6-yl)benzofuran-4-yl)oxy)methyl)thiazol-2-yl)-N-methylbenzamide] is 0.38 nM; for `COc1nn2cc(-c3cc4c(OCc5csc(-c6ccc(C(=O)N(C)C)cc6)n5)cc(F)cc4o3)nc2s1` [Example 185, 4-(4-(((6-Fluoro-2-(2-methoxyimidazo[2,1-b][1,3,4]thiadiazol-6-yl)benzofuran-4-yl)oxy)methyl)thiazol-2-yl)-N,N-dimethylbenzamide] it is 0.41 nM.
